Publication PMC9962372, “Antiparasitic Meroterpenoids Isolated from Memnoniella dichroa CF-080171” (Pharmaceutics, 2023)
Like-named read-outs stand apart in the source and are kept apart here.

Assays:
[1] = system: three different cell lines; design: method as in PMID 10656571; settings: at 100 µM; cited from earlier work
[2] = MTT-based cytotoxicity assay in HepG2 cells; format: cell-based; settings: human, Hep G2 liver carcinoma cells (ATCC HB-8065); 72 h, MTT; read-out: Cytotoxic EC50 Hep G2
Method: (§1) The EC50 of all the biological assays were computed with the Genedata Screener application (Genedata AG, Basel, Switzerland) using the equation below to calculate percentage inhibition: Percentage inhibition=[1−(Abswell−Absneg/Abspos−Absneg)]×100
(§2) Here, Abswell = absorbance/well, Abspos = average absorbance in positive control wells, and Absneg = average absorbance in negative wells.
(§3) The EC50 determinations of the isolated compounds were performed with 12-point dose-response curves. Each concentration was evaluated in triplicate (concentration range of 50–0.0244 µM) in an MTT-based assay performed in liver carcinoma Hep G2 HB-8065 ATCC (American Type Culture Collection) cells as previously described by Annang et al., 2020 [29]. Cells (96-well plates were used with seeding at 1 × 10^4 cells/well) were cultured in 200 µL MEM medium per well at 37 °C, 5% CO2 for 24 h, after which the spent media were replaced with 200 µL MEM medium and 1 μL of test compounds. DMSO (0.5%), 8 mM methyl methanesulfonate and doxorubicin were used as positive, negative, and standard drug controls, respectively. After 72 h incubation with the test compounds at 37 °C, 100 µL of 0.5 mg/mL MTT solution diluted in MEM without phenol red was added to each well, and plates were briefly shaken and further incubated for 3 h at 37 °C. The supernatant in each well was carefully discarded and replaced with 100 µL of DMSO, and plates were gently shaken (to solubilize the formazan formed) before reading the absorbance at 570 nm in a Victor2 plate reader (Perkin Elmer, USA).

[3] = system: Hep G2 cells; assay: MTT-based cytotoxicity assay in HepG2 cells; format: cell-based; settings: Hep G2 EC50 versus P. falciparum 3D7 EC50
Method: as §1, §2, §3

[4] = Cytotoxicity assay (resazurin) in L6 rat skeletal muscle cells; format: cell-based; settings: L6 rat skeletal muscle cells (ATCC CRL-1458), read-out: Cytotoxic EC50 L6
Method: Seeding of the L6 cells was done in 96-well plates at 4 × 10^3 cells per well in 100 µL volume; they were then cultured for 24 h. Ten millimolar (10 mM) DMSO stocks of the compounds to be tested were used to prepare 16-point dose-response curves. Each concentration was evaluated in triplicate (using the cell culture medium as diluent) at a final volume of 300 µL (compound concentration range of 50–0.00152 µM and DMSO at 0.5 %). The spent growth medium from the 24 h-seeded cells was carefully replaced with 100 µL of the prepared working concentrations of the compounds to be tested and incubated for 72 h. The spent medium was again carefully replaced (without disturbing the layer of cells at the bottom of each well) with 100 µL fresh medium, after which 20 µL of 0.02% resazurin (previously diluted in 1X PBS) was added to the wells and incubated for 2 h in the dark at 37 °C. The plates were then shaken for 5 s, and fluorescence was read at 570–590 nm in a TECAN Infinite F200 fluorimeter.

[5] = system: T. cruzi Tulahuen C4; assay: Transgenic T. cruzi β-D-galactosidase assay in infected L6 cells; format: cell-based, Trypanosoma cruzi; settings: for EC50: 96 h, infected L6 host cells, β-galactosidase readout, read-out: Antiparasitic EC50 T. cruzi Tulahuen C4; for activity against T. cruzi Tulahuen (in words): whole parasites, extracts in HTS / bioassay-guided testing
Method: as §1, §2
The EC50 determinations of the isolated compounds were performed with 16-point dose-response curves. Each concentration was evaluated in triplicate (concentration range of 50–0.00152 µM) in the transgenic T. cruzi β-D-galactosidase assay as previously described by Annang et al., 2014 [27]. The T. cruzi Tulahuen strain used is a genetically modified strain that expresses the Escherichia coli β-galactosidase gene, lacZ [28]. It was kindly supplied by Marcel Kaiser (Swiss Tropical and Public Health Institute). The parasites were generally maintained in a growth medium (RPMI 1640 supplemented with 10% inactivated fetal bovine serum (iFBS), 100 µg/mL streptomycin, 100 U/mL penicillin, 2 mM L-glutamine) at 37 °C, 5% CO2. For the assay, transgenic trypomastigote stage parasites were used to infect L6 rat skeletal muscle cells (host). Fifty-five microliters (55 µL) of the infected L6 cell culture were dispensed into 384-well assay plates (2 × 10^3 infected L6 cells/well) containing 5 µL of the test compounds (parasite medium/10 µgmL^−1 benznidazole were used as positive/negative growth controls) and incubated for 96 h at 37 °C, after which 15 µL of assay solution (100 µM CRPG and 0.1% NP40 made up in PBS) were added to each well, and plates were further incubated in the dark for 4 h at 37 °C. Absorbance in the wells was read at 585 nm in an Envision plate reader (Perkin Elmer, Waltham, MA, USA).

[6] = system: P. falciparum 3D7; assay: P. falciparum 3D7 lactate dehydrogenase whole parasite assay; format: cell-based, Plasmodium falciparum; settings: for EC50: Plasmodium falciparum
Method: The EC50 determinations of the isolated compounds were performed with 16-point dose-response curves. Each concentration was evaluated in triplicate (concentration range of 100–0.00305 µM) using the P. falciparum 3D7 lactate dehydrogenase whole parasite assay as previously described by Pérez-Moreno et al., 2016 [25]. The Plasmodium falciparum 3D7 strain is a clone of the NF54 strain, which was previously isolated from a patient. The parasites were maintained in O^+ human erythrocytes at 5% haematocrit and 0.1–8% parasitaemia, with incubation at 37 °C, 1% O2, 5% CO2, and 94% N2 in complete medium (10.4 g/L RPMI 1640, 150 μM hypoxanthine, 12.5 μg/mL gentamicin, 0.2% NaHCO3, 0.5% albuMAX II, 2% human O^+ serum). The […] (LDH) assay was performed in 384-well plates using late-ring/early trophozoite synchronized parasites at 2% hematocrit and 0.25% parasitaemia. Twenty-five microliters of (25 µL) parasite culture were incubated with 5 µL of the test compounds (parasite medium/100 nM chloroquine used as positive/negative growth controls) for 72 h, after which the plates were frozen for 4 h, thawed for 1 h at room temperature before adding 70 µL of freshly prepared LDH solution (1 U/mL diaphorase, 143 µM APAD, 143 mM sodium L-lactate, 178.75 µM NBT, 0.7% Tween 20, 100 mM Tris-HCL) at pH 8.0. Plates were briefly shaken and incubated for 10 min (in the dark), and absorbance was read at 650 nm in an Envision plate reader (Perkin Elmer, Waltham, MA, USA).
as §1, §2

[7] = system: P. falciparum 3D7; assay: as above; format: cell-based, Plasmodium falciparum; settings: whole parasites; extracts in HTS / bioassay-guided testing
[8] = C3 ketone (1) versus C3 hydroxyl (2)
[9] = Trypanosoma cruzi, TULAHUEN, L6, 96 h
[10] = 3D7 / TULAHUEN, read-out: antiparasitic EC50 against both parasites (range)
[11] = 3D7, 72 h, LDH readout, 16-point curves in triplicate, read-out: Antiparasitic EC50 P. falciparum 3D7

CC(=O)O[C@H]1CC[C@]2(C)[C@H]3Cc4c(O)cc5c(c4O[C@@]3(C)CC[C@H]2C1(C)C)CN(CCO)C5=O [Memnobotrin B]
cytotoxic activity, inhibition percentages [1]: 80–90%

CC1(C)C(=O)CC[C@]2(C)[C@H]3Cc4c(O)cc5c(c4O[C@]3(C)CC[C@@H]12)CN(CCO)C5=O [Compound 1, Memnobotrin C]
EC50 at 72 h [2]: 1200 nM
Selectivity index (SI), Hep G2 in comparison to activity in P. falciparum 3D7 [3]: 30
EC50 at 72 h [4]: < 98 nM
EC50 [5]: 266 ± 24 nM
fold improvement of biological activity against T. cruzi Tulahuen C4 compared to compound 2 [5, 8]: 5 fold
EC50 [5, 9]: 226 nM
fold improvement of biological activity against P. falciparum 3D7 compared to compound 2 [6, 8]: 5 fold
EC50 [6, 10]: 40 to 1370 nM
EC50 [6, 11]: 40 ± 2 nM

CC(=O)O[C@H]1CC[C@]2(C)[C@H]3Cc4c(O)cc5c(c4O[C@]3(C)CC[C@H]2C1(C)C)CN(CCO)C5=O [Compound 3, 8-epi-memnobotrin B]
fold lower potency against T. cruzi Tulahuen C4 in comparison to compound 1 [5]: 157 fold
EC50 [5, 9]: 41770 ± 10 nM
fold lower potency against P. falciparum 3D7 in comparison to compound 1 [6]: 179 fold
EC50 [6, 11]: 7170 ± 50 nM

C=C1CC[C@H]2C(C)(C)C(=O)CC[C@]2(C)[C@H]1Cc1c(O)cc2c(c1O)C(=O)OC2 [Compound 7]
activity against P. falciparum 3D7 (in words) [7]: low or no biological activity
EC50 at 72 h [4]: > 50000 nM
EC50 [5, 9]: > 50000 nM
activity against T. cruzi Tulahuen (in words) [5]: low or no biological activity
EC50 [6, 11]: > 100000 nM

CC(=CCc1c(O)cc2c(c1O)C(=O)OC2)CCC=C(C)CCCC(C)(C)OC1OC(CO)C(O)C(O)C1O (stereo not shown) [Compound 4]
EC50 at 72 h [2]: 4840 nM
Selectivity index (SI), Hep G2 in comparison to activity in P. falciparum 3D7 [3]: 19.9
EC50 [5, 9]: 934 ± 88 nM
EC50 [6, 11]: 243 ± 23 nM

C/C(=C\CCC1(C)C=Cc2c(cc3c(c2O)C(=O)OC3)O1)CCC(O)C(C)(C)O (stereo not shown) [Compound 5]
activity against P. falciparum 3D7 (in words) [7]: low or no biological activity
EC50 at 72 h [4]: > 50000 nM
EC50 [5, 9]: > 50000 nM
activity against T. cruzi Tulahuen (in words) [5]: low or no biological activity
EC50 [6, 11]: 8000 ± 200 nM

CC1(C)[C@@H](O)CC[C@]2(C)[C@H]3Cc4c(O)cc5c(c4O[C@]3(C)CC[C@@H]12)C(=O)OC5 [Compound 8]
activity against P. falciparum 3D7 (in words) [7]: low or no biological activity
EC50 [5, 9]: > 50000 nM
activity against T. cruzi Tulahuen (in words) [5]: low or no biological activity
EC50 [6, 11]: 17800 ± 100 nM

CC1(C)[C@@H](O)CC[C@]2(C)[C@H]3Cc4c(O)cc5c(c4O[C@]3(C)CC[C@@H]12)CN(CCO)C5=O [Compound 2, memnobotrin D]
EC50 at 72 h [2]: 4530 nM
Selectivity index (SI), Hep G2 in comparison to activity in P. falciparum 3D7 [3]: 22.5
EC50 at 72 h [4]: 1390 ± 40 nM
EC50 [5, 9]: 1370 ± 18 nM
EC50 [6, 10]: 40 to 1370 nM
EC50 [6, 11]: 201 ± 16 nM

Cc1cc(O)c2c(c1)O[C@]1(C)CC[C@H]3C(C)(C)[C@@H](O)CC[C@]3(C)[C@H]1C2 [Compound 6]
activity against P. falciparum 3D7 (in words) [7]: low or no biological activity
EC50 at 72 h [4]: 2000 ± 100 nM
EC50 [5, 9]: 7000 ± 200 nM
activity against T. cruzi Tulahuen (in words) [5]: low or no biological activity
EC50 [6, 11]: 4000 ± 100 nM
